Square brackets hold non-standard residues; d marks the D form. 2Nal = N[C@@H](Cc1ccc2ccccc2c1)C(=O)O; Sar = CNCC(=O)O
Tests used:
[1] = system: myeloid progenitor cells (MPCs); assay: Flow cytometry of bone marrow ten days after treatment: MPCs (Example 2); type: in vivo, mice; conditions: ten days after 300 μg/kg s.c.; percentage of CD45- cells
Experimental: (§1) In this study, male C57BL/6 mice (8-10 weeks old) from Jackson Laboratory (Bar Harbor, Me.) were subcutaneously injected with RWJ-800088 (TPOm) at 300 μg/kg or PBS (vehicle). At day 10 after RWJ-800088 injection, the mice were sacrificed to harvest bone marrow and peripheral blood. Another set of groups was intraperitoneally injected with 5 mg/kg of plerixafor (also named AMD3100) from Sigma-Aldrich 1 hour before the sacrifice. The bone marrow was further processed to isolate single cell populations. Then, the cells from bone marrow and blood were subjected to flow cytometry to identify various populations. Bone Marrow Cell Collection
(§2) Tibias were flushed and digested with 1 mg/mL collagenase IV (Gibco, 17104019) and 2 mg/mL dispase (Gibco, 17105041) in Hank's balanced salt solution (HBSS; Gibco, 24020117) for a total of 30 minutes at 37° C. with an inversion at 15 minutes. After, cell pellet was resuspended in lx ACK lysing buffer (Lonza, 10-548E) to lyse red blood cells. The suspension was filtered through 100 μm nylon mesh and collected for further analysis.
(§3) The cells isolated from the bone marrow and peripheral blood were incubated with Live/Dead Zombie dye (Biolegend) in PBS at room temperature for 15 minutes. After, primary antibodies were diluted in 2% FBS-PBS solution and incubated with cells on ice for 30 minutes. […]

[2] = system: LSK; assay: Flow cytometry of femoral bone marrow, total count/femur: LSK cells (Example 1); type: in vivo, mice; conditions: after treatment for 13 days
Experimental: (§4) In this study, normal male C57BL/6 mice were subcutaneously injected with RWJ-800088 (TPOm) at 300 μg/kg (Day 0). […]
as §2, with “(HB SS) (Gibco,” for “(HBSS; Gibco,”, “After, the” for “After,”, “1X” for “lx”, “70” for “100”
(§5) The bone marrow was further processed to isolate single cell populations. Then, the cells from the bone marrow and blood were subjected to flow cytometry to identify various population, including endothelial cells (EC), EPC, arterial EC, sinusoidal EC, lineage-, c-kit+, Sca-1+(LSK), megakaryocyte progenitors, short-term hematopoietic stem cell (ST-HSC), long-term HSC (LT-HSC), mesenchymal stern cell (MSC), LepR+c-mpl+MSC. The portion of blood sample was also subjected to clonogenic assay to validate the EPC population.
(§6) The cells isolated from the bone marrow and peripheral blood were incubated with
(§7) Live/Dead Zombie dye (Biolegend) in phosphate-buffered saline (PBS) at room temperature for 15 minutes. After, primary antibodies were diluted in 2% fetal bovine serum (FBS)-PBS solution and incubated with cells on ice for 30 minutes. […]

[3] = system: Endothelial cells (EC); assay: Flow cytometry of femoral bone marrow, total count/femur: CD31+ endothelial cells (Example 1); type: in vivo, mice; conditions: days 3 to 13 after 300 μg/kg s.c.
Experimental: In this study, normal male C57BL/6 mice were subcutaneously injected with RWJ-800088 (TPOm) at 300 μg/kg (Day 0). At days 3, 7, 10 and 14, the mice were sacrificed to collect the bone marrow and blood samples.
(§8) […] After, the cell pellet was resuspended in 1X ACK lysing buffer (Lonza, 10-548E) to lyse red blood cells. The suspension was filtered through 70 μm nylon mesh and collected for further analysis.
as §5, §6
Live/Dead Zombie dye (Biolegend) in phosphate-buffered saline (PBS) at room temperature for 15 minutes. After, primary antibodies were diluted in 2% fetal bovine serum (FBS)-PBS solution and incubated with cells on ice for 30 minutes. Cells were washed with 2% FBS-PBS solution and incubated with secondary antibodies for 30 minutes. […]

[4] = system: Megakaryocytes; assay: Histology (H&E) megakaryocyte count in sternal bone marrow of healthy mice after single s.c. dose; type: in vivo
Experimental: as §4
Further, hematopoietic stem and progenitor cell (HSPC) populations in the femoral marrow were examined by flow cytometry (FIG. 2).

[5] = system: Short-term HSCs; assay: Flow cytometry of femoral bone marrow, total count/femur: short-term HSCs (Example 1); type: in vivo, mice; conditions: after treatment for 13 days
Experimental: as §4, §8, §5, §6
(§9) Live/Dead Zombie dye (Biolegend) in phosphate-buffered saline (PBS) at room temperature for 15 minutes. After, primary antibodies were diluted in 2% fetal bovine serum (FBS)-PBS solution and incubated with cells on ice for 30 minutes. Cells were washed with 2% FBS-PBS solution and incubated with secondary antibodies for 30 minutes. Cells were washed again and acquired on Cytek Aurora spectral cytometer. Analysis was done through FlowJo (Tree Star) software.

[6] = system: Myeloid progenitor cells (MPC); assay: Flow cytometry of femoral bone marrow, total count/femur: myeloid progenitor cells (Example 1); type: in vivo, mice
Experimental: as §4, §8, §5, §6, §9

[7] = system: Endothelial progenitor cells (EPC); assay: Flow cytometry of femoral bone marrow, total count/femur: endothelial progenitor cells (Example 1); type: in vivo, mice; conditions: days 3 to 13 after 300 μg/kg s.c.
Experimental: as §4
as §2, with “(HB SS) (Gibco,” for “(HBSS; Gibco,”, “After, the” for “After,”, “1X” for “lx”, “70” for “100”
as §5, §6, §7

[8] = system: Endothelial progenitor cells (EPCs); assay: Flow cytometry of bone marrow ten days after treatment: EPCs (Example 2); type: in vivo, mice; conditions: 10 days after 300 μg/kg s.c.; percentage of CD45- cells
Experimental: as §1, §2, §3

[9] = system: Long-term HSCs; assay: Flow cytometry of femoral bone marrow, total count/femur: long-term HSCs (Example 1); type: in vivo, mice; conditions: only by day 13 after treatment
Experimental: as §4, §8, §5, §6, §9

[10] = system: hemopoietic stem cells (HSCs); assay: Flow cytometry of bone marrow ten days after treatment: HSCs (Example 2); type: in vivo, mice; conditions: ten days after 300 μg/kg s.c.; percentage of CD45- cells
Experimental: as §1, §2, §3

## methoxypolyethyleneglyco120000-propionyl-L-Isoleucyl-L-Glutamyl-Glycyl-L-Prolyl-L-Threonyl-L-Leucyl-L-Arginyl-L-Glutaminyl-L-2-Naphthylalanyl-L-Leucyl-L-Alanyl-L-Alanyl-L-Arginyl-Sarcosyl-Ne-(methoxypolyethyleneglyco120000-propionyl-L-Isoleucyl-L-Glutamyl-Glycyl-L-Prolyl-L-Threonyl-L-Leucyl-L-Arginyl-L-Glutaminyl-L-2-Naphthylalanyl-L-Leucyl-L-Alanyl-L-Alanyl-L-Arginyl-Sarcosyl-)-Lysinamide ({methoxypolyethyleneglycol 20000‑propionyl}-IEGPTLRQ[2Nal]LAAR[Sar]K-NH2; also: dimer: second identical mPEG20000-propionyl-peptide-Sar arm on C-terminal Lys Ne) [RWJ-800088]
[1]
  MPC population in the bone marrow compartment: increases
[2]
  LSK (lineage-, c-kit+, Sca-1+) population in femoral marrow: significantly increased
[3]
  EC (CD31+) population in femoral marrow, time course: increased beginning on day 3 and was sustained through day 13
[4]; 13 days after treatment, 300 μg/kg s.c.
  Number of megakaryocytes in sternal marrow: dropped down to baseline
[4]; days 3 and 6 after 300 μg/kg s.c.
  Megakaryocytes in sternal marrow relative to naive animals: significant increases
[5]
  LSK, CD34+ short-term (ST-) HSC population in femoral marrow: significantly increased
[6]; day 3 after treatment
  Myeloid progenitor cells (lineage-, c-kit+) in femoral marrow relative to naive: significant increases
[6]; day 6 after treatment
  Myeloid progenitor cells (lineage-, c-kit+) in femoral marrow: significant decrease
[6]; day 13 after treatment
  Myeloid progenitor cells (lineage-, c-kit+) in femoral marrow: return to baseline
[7]
  EPC population in femoral marrow, time course: began increasing on day 3 with a peak on day 6
[8]
  EPC populations in the bone marrow: significant increase
[9]
  LSK, CD34-, CD48-, CD150+ long-term (LT-) HSCs in femoral marrow: significantly increased
[10]
  HSC population in the bone marrow compartment: increases
